The target of one assay is T1, 5-Lipoxygenase (Rattus norvegicus, UniProt P12527).
T1 construct: endogenous in cells; host or cells: RBL-1 (rat basophilic leukemia) cells
T1 sequence (P12527 1-673): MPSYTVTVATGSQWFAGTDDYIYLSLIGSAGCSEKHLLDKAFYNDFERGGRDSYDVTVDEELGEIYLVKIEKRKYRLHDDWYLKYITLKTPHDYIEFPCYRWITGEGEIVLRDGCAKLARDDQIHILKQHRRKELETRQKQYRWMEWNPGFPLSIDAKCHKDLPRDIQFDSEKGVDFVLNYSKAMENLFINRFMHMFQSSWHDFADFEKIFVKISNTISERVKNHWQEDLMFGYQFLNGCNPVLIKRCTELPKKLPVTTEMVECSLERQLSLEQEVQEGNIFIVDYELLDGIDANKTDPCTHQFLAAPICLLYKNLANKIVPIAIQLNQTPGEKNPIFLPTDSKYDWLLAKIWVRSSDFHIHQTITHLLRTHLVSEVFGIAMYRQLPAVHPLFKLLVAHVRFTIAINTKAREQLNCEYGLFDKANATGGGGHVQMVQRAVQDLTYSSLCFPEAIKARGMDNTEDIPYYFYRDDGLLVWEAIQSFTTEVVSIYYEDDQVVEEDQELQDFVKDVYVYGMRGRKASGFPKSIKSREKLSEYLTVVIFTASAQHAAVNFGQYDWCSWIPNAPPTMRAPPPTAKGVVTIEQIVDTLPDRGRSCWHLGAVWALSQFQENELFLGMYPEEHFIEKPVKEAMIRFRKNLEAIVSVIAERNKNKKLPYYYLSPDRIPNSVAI
Put plainly: 5-Lipoxygenase inhibiting action: 5-HETE production in rat basophilic leukemia (RBL-1) cells (HPLC). Type of assay: cell-based. The conditions noted are these: read-out: Effect of Inhibiting 5-Lipoxygenase, % Inhibition (IE); for inhibition at 10 µM: 10^-5 M; for inhibition at 1 µM: 10^-6 M; for inhibition at 0.1 µM: 10^-7 M; for inhibition at 0.01 µM: 10^-8 M. As to the method: In 0.5 ml of MCM (mast cell medium) was suspended 10^7 of rat basophilic leukemia (RBL-1) cells. To this suspension was added the test solution previously prepared [consisting of 0.5 ml of MCM, 50 μg of arachidonic acid, 10 μg of calcium ionophore A-23187 and the test compound (final concentrations 10 μm, 1 μm, 0.1 μm and 0.01 μm)], and the reaction was allowed to proceed at 37° C. for 20 minutes. To the reaction mixture was added 4 ml of ethanol, which was shaken sufficiently, followed by leaving the resultant mixture standing for 10 minutes at room temperatures. The resultant mixture was subjected to a centrifuge (2000 rpm) for 10 minutes, then the supernatant was separated. Thus-separated supernatant was concentrated to dryness under reduced pressure. To the concentrate was added 0.5 ml of a 60% aqueous methanol. A 100μl Portion of this solution was taken and subjected to high performance liquid chromatography to perform quantitative determination of 5-HETE (5-hydroxyeicosatetraenoic acid). UV absorption of 5-HETE at 237 nm was measured with a UV absorption monitor. The inhibitory effect (IE) of 5-HETE is expressed by (1-b/a)×100. In this formula, a means the height of the peak or the area of the peak in the case of presence of no compound (I), while b means the height of the peak or the area of the peak in the case of presence of the compound (I).

The target in a further assay is T2, 12-Lipoxygenase (Rattus norvegicus, UniProt F1LQ70).
T2 construct: from tissue; host or cells: Wistar rat platelets (PRP mixed with PPP, from citrated aortic blood)
T2 sequence (F1LQ70 1-663): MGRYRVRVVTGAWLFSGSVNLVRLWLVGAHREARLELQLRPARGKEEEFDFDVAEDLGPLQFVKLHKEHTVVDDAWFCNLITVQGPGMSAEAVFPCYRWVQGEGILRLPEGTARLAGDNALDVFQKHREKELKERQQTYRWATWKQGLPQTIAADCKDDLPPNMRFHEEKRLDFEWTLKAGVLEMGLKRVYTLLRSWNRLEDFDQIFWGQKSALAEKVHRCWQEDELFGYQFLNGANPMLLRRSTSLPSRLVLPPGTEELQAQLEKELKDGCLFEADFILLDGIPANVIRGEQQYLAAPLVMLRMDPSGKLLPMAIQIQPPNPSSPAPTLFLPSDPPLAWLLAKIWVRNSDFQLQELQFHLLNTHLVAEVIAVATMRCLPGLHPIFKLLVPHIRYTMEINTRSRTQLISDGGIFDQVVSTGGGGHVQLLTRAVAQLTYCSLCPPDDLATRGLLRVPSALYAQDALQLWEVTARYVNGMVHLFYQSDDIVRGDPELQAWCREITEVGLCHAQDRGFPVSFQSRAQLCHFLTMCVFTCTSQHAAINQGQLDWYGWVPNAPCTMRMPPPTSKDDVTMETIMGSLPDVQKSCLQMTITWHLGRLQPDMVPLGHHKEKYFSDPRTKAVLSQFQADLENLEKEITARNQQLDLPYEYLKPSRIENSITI
Kind of assay: 12-Lipoxygenase inhibitory action: 12-HETE production in Wistar rat platelets (HPLC). As to conditions: read-out: 12-Lipoxygenase Inhibitory Action, % Inhibition (IE); for inhibition at 100 µM: 10^-4 M; for inhibition at 10 µM: 10^-5 M; for inhibition at 1 µM: 10^-6 M; for inhibition at 0.1 µM: 10^-7 M. It is filed as cell-based. As to the method:
Through the descending aorta of a Wistar rat, 10 ml of blood was collected, under anesthesia, together with citric acid of a volume corresponding to 10%. PRP and PPP were respectively prepared, then they were mixed to make the number of platelets to be 10^9 /ml. To 2.5 μl each of the test solutions prepared in advance (final concentrations of the test compounds : 100 μm, 10 μm, 1 μm and 0.1 μm) was added 0.225 ml of the platelet solution. The respective solutions were kept at 37° C. for 5 minutes, to which was added 25 μl each of arachidonic acid solution (50 μg/ml) , then the respective mixtures were shaken immediately. The reaction was allowed to proceed at 37° C. for 15 minutes, and there was added ethanol (1 ml) to stop the reaction. The reaction mixture was subjected to a centrifuge (2000 rpm) for 5 minutes. One ml of the supernatant was taken, which was mixed with 1 ml of water. 100 μl of this mixture solution was subjected to high performance liquid chromatography to quantitatively determine 12-HETE. The detection was conducted at 240 nm. The calculation of the inhibition rate was conducted in a manner as in the case of 5-HETE.

Molecules are shown by their SMILES.

The record followed here is patent US4978761A, “5-hydroxy-2-substituted-2,4,6,7-tetramethyl-2,3-dihydrobenzofurans” (Takeda Chemical Industries, Ltd., priority 1988, dated 1990).

By inhibition is commonly meant the change of the read-out against control, counted positive when it falls.

`Cc1c(C)c2c(c(C)c1O)CC(C)(CBr)O2` (centres unmarked) [Compound 6]: on 5-Lipoxygenase, the inhibition at 10 µM is 100%, the inhibition at 1 µM came to 100%, the inhibition at 0.1 µM stood at 52% and the inhibition at 0.01 µM is 4%. In addition, at 12-Lipoxygenase, the inhibition at 100 µM was found to be 98%, the inhibition at 10 µM was 88%, the inhibition at 1 µM amounted to 16% and the inhibition at 0.1 µM stood at 2%.

As for `Cc1c(C)c2c(c(C)c1O)CC(C)(C=Cc1ccccc1)O2` (centres unmarked) [Compound 10], at 5-Lipoxygenase, the inhibition at 10 µM is 100%, the inhibition at 1 µM is 99%, the inhibition at 0.1 µM is 98% and the inhibition at 0.01 µM turned out to be 12%. In addition, on 12-Lipoxygenase, the inhibition at 100 µM amounted to 96%, the inhibition at 10 µM turned out to be 92%, the inhibition at 1 µM is 52% and the inhibition at 0.1 µM amounted to 45%.

As to `Cc1c(C)c2c(c(C)c1O)CC(C)(CCc1ccccc1)O2` (centres unmarked) [Compound 12], on 5-Lipoxygenase, the inhibition at 10 µM is 100%, the inhibition at 1 µM amounted to 100%, the inhibition at 0.1 µM is 90% and the inhibition at 0.01 µM was 46%. In addition, on 12-Lipoxygenase, the inhibition at 100 µM was determined as 95%, the inhibition at 10 µM was determined as 82% and the inhibition at 1 µM came out at 11%.
